Measured values as given in PMC10443802, “Targeting a xenobiotic transporter to ameliorate vincristine-induced sensory neuropathy” (JCI Insight, 2023).
Where “and” joins values, the source holds several entries; their conditions need not be identical. Equal values may be shown once.

Experiments:
hOATP1B1 = target: T1, hOATP1B1 (Homo sapiens, UniProt Q9Y6L6); experiment: Inhibition of EβG uptake in HEK293 cells overexpressing hOATP1B1; conditions: inhibitor 10 μM, 15-min pre-incubation
T1 sequence (Q9Y6L6 1-691): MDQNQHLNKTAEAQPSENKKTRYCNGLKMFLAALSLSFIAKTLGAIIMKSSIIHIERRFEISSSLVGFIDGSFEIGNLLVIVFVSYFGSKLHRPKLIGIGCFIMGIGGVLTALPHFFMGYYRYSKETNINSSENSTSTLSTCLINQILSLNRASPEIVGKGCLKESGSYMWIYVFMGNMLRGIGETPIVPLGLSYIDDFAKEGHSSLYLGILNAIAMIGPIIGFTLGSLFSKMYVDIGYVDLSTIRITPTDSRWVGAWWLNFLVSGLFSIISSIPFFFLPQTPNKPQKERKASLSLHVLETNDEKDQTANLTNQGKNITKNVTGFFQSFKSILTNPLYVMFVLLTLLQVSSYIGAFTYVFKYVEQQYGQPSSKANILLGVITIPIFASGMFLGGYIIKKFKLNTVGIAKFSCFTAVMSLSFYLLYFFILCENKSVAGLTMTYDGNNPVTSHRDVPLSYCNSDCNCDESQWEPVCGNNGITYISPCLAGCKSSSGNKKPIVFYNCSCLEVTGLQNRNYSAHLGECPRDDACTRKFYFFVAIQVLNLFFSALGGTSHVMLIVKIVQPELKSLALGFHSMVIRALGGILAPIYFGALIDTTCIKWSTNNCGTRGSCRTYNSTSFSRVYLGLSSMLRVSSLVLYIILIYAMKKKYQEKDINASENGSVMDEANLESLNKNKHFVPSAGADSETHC

mOATP1B2 = target: T2, mOATP1B2 (Mus musculus, UniProt Q9JJL3); experiment: Nilotinib uptake in HEK293 cells overexpressing mOATP1B2; assay type: in vitro ADME; conditions: HEK293 cells overexpressing mOATP1B2 vs vector control
T2 sequence (Q9JJL3 1-689): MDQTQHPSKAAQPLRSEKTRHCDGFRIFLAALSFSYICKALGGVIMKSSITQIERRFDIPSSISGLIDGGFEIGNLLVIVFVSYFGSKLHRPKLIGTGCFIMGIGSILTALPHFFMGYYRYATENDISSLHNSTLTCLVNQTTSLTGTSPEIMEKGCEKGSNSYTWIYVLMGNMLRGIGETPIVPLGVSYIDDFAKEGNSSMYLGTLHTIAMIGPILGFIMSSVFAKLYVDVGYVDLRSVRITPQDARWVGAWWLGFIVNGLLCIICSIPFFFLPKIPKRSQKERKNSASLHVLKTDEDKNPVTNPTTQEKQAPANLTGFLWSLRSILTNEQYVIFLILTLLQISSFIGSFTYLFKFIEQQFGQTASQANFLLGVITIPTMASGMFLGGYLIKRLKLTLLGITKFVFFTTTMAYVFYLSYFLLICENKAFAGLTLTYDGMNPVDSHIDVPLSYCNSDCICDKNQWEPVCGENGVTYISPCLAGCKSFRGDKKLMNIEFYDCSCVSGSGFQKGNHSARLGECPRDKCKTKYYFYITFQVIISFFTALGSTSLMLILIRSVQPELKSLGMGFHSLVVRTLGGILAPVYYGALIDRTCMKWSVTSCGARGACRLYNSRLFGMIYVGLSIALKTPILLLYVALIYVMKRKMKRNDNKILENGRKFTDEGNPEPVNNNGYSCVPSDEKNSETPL

hASBT = hASBT (Homo sapiens, UniProt Q12908); experiment: Vincristine uptake screen, HeLa cells overexpressing hASBT; assay type: in vitro ADME
Experimental: (§1) Relative uptake is expressed as percentage change compared with empty vector controls (n = 4–14 per group). […] Human OATP1B1 and OATP1B3 transporter–overexpressed cells were used as positive controls; empty vector controls were used as the negative control. […] Mechanical allodynia (C), thermal hyperalgesia (D), and sciatic nerve maximal action potential amplitudes (E) are expressed as percentage change relative to baseline values (n = 6–8 per group). Statistical analysis was performed using a 2-way ANOVA with Bonferroni’s post hoc test. **P < 0.01, ***P < 0.001, ****P < 0.0001, compared with baseline values. […] Data are shown as mean ± SEM. […]
(§2) transfected with transporters of interest, including hOAT1, hOAT3, hOAT4, hOATP1A2, hOATP3A1, hOATP4A1, hOATP5A1, hOATP1C1, hOATP1B1, hOATP1B3, hOATP2B1, hOCT1, hOCT2, hOCTN1, hOCTN2, hASBT, hNTCP, hNPT1, hMATE1, hOSTα/β, hPEPT1, hPEPT2, rOatp1a1, rOatp1a4, rOatp1a5, rOatp1b2, rNtcp, rAsbt, rOat1, and rOct1. Cells were transfected with expression plasmid or vector control lacking any insert using Lipofectin reagent (Invitrogen). […] The cellular radioactivity was quantified by liquid scintillation counting as described above. […]
(§3) Samples were analyzed using real-time quantitative PCR and Taqman Probes (Applied Biosystems). The relative gene expression was determined using the ΔΔCt method, and normalized to the mouse or human housekeeping gene, GAPDH. […]

rOATP1A1 = rOATP1A1 (Rattus norvegicus, UniProt P46720); experiment: Vincristine uptake screen, HeLa cells overexpressing rOATP1A1; assay type: in vitro ADME
Experimental: as §1, §2, §3

mice = experiment: Gross motor performance, automated elevated ladder test; assay type: in vivo, mouse

Sequence of rOATP1A1 (P46720 whole entry): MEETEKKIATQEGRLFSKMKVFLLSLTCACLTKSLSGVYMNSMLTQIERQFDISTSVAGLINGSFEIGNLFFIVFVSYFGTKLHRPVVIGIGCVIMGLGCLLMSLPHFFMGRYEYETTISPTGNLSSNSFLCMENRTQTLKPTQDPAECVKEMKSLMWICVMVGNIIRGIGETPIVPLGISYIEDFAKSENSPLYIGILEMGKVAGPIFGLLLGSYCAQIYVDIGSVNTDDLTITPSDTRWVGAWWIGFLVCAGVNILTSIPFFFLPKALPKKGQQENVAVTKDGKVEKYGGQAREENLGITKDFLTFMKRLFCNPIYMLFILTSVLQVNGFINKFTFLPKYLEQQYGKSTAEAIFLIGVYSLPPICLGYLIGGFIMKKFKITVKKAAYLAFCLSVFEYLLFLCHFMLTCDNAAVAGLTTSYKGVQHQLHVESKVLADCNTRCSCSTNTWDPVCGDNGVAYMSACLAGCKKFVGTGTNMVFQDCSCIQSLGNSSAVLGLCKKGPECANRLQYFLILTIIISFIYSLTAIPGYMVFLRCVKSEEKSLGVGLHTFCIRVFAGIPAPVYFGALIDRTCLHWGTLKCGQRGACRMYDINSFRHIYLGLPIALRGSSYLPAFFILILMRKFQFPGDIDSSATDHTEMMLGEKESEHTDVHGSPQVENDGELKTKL
Sequence of hASBT (Q12908 whole entry): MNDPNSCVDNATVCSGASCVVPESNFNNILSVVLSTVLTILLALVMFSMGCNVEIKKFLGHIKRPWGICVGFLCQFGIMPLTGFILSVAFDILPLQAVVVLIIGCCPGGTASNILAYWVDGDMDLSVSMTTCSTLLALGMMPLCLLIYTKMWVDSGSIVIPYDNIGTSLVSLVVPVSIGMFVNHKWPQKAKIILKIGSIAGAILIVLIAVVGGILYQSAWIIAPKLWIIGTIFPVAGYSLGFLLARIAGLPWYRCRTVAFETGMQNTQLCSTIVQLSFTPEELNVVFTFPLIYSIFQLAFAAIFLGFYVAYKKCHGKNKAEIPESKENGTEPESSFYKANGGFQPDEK

| Structure (SMILES) | EβG uptake (% of vehicle) (hOATP1B1) | Nilotinib uptake (% of control) (mOATP1B2) | Vincristine uptake (% of vector control) (hASBT) | Vincristine uptake (% of vector control) (rOATP1A1) | Gross motor performance (automated ladder and open field tests) (mice; WT mice or OATP1B2-/- mice, single i.p. dose 1 mg/kg) | Number of missed steps (mice; Wild-type mice, Day 2) |
| --- | --- | --- | --- | --- | --- | --- |
| Cc1cn(-c2cc(NC(=O)c3ccc(C)c(Nc4nccc(-c5cccnc5)n4)c3)cc(C(F)(F)F)c2)cn1 [Nilotinib, nilotinib] | 9.108 % of vehicle and 9.828 % of vehicle and 15.7637 % of vehicle | 68.9093 % of control and 50.5858 % of control and 83.427 % of control |  |  |  |  |
| CC[C@]1(O)C[C@H]2CN(CCc3c([nH]c4ccccc34)[C@@](C(=O)OC)(c3cc4c(cc3OC)N(C=O)[C@H]3[C@@](O)(C(=O)OC)[C@H](OC(C)=O)[C@]5(CC)C=CCN6CC[C@]43[C@@H]65)C2)C1 [Vincristine, vincristine] |  |  | 91.00 % of vector control and 82.00 % of vector control and 85.00 % of vector control and 81.00 % of vector control and 114.00 % of vector control and 83.00 % of vector control and 69.00 % of vector control and 101.00 % of vector control | 102.00 % of vector control and 84.00 % of vector control and 73.00 % of vector control and 95.00 % of vector control and 74.00 % of vector control and 58.00 % of vector control and 71.00 % of vector control and 62.00 % of vector control | did not affect gross motor performance | 7.667 and 9.667 and 8.333 and 5.667 and 8 and 10.6667 and 9.333 |
